The experiment addresses T1, Human DPP4 (Homo sapiens, UniProt P27487).
T1 construct: purchased Sigma-Aldrich MAK088
As to the kind of experiment: DPP4 activity assay (DPP4 Activity Assay Kit, fluorescent substrate). The experiment is classed as biochemical. As to conditions: Human DPP4; read-out: DPP4 inhibition IC50 [nM]). As for the experimental part:
DPP4 activity assay. Human DPP4 activity assay data were obtained using a DPP4 Activity Assay Kit (Sigma-Aldrich, MAK088) according to the manufacturer's instructions. Briefly, 10 μL of DPP4 Assay Buffer were transferred per well in low volume 384-well plates before transferring 10 μL of test compound dissolved in DPP4 assay buffer. To each well was added 5 μL of Master Reaction Mix containing a fluorescent substrate that becomes fluorescent upon cleavage by the enzyme. Fluorescence intensity measurements were recorded at 1-minute time intervals over the course of 20 minutes using an Envision Multimode Plate Reader (PerkinElmer).

T1 sequence (P27487 whole entry): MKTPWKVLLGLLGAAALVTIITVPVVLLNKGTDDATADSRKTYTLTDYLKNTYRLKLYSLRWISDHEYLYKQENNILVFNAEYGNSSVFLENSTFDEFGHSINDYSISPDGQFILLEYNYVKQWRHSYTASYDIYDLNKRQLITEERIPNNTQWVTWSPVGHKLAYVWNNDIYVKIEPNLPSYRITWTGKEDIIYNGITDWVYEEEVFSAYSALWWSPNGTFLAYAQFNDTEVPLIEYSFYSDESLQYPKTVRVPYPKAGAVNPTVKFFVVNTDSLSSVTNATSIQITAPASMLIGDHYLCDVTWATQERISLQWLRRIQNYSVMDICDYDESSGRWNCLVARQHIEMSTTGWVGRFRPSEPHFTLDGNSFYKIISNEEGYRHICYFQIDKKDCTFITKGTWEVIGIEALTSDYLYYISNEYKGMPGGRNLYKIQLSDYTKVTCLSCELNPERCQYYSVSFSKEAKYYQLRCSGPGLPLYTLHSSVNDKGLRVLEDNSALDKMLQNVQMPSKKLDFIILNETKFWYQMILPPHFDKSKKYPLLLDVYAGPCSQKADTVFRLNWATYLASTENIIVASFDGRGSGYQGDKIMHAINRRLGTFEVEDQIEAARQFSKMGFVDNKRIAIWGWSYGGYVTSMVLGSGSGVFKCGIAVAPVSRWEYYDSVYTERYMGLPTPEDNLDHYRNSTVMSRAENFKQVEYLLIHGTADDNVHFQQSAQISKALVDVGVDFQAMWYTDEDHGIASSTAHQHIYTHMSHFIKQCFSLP

As usually defined, the IC50 is the midpoint of a concentration-inhibition curve. On to `CC#CCn1c(N2CCC[C@@H](N)C2)nc2c1c(=O)n(Cc1nc(NCCCCCCCn3cc(CN(C[C@H](O)[C@@H](O)[C@H](O)[C@H](O)CO)C[C@H](O)[C@@H](O)[C@H](O)[C@H](O)CO)nn3)ccc1C(=O)O)c(=O)n2C` [Compound 35, 2-((8-((R)-3-aminopiperidin-1-yl)-7-(but-2-yn-1-yl)-3-methyl-2,6-dioxo-2,3,6,7-tetrahydro-1H-purin-1-yl)methyl)-6-((7-(4-((bis((2S,3R,4R,5R)-2,3,4,5,6-pentahydroxyhexyl)amino)methyl)-1H-1,2,3-triazol-1-yl)heptyl)amino)nicotinic acid], for which the IC50 worked out at 34.3 nM.

On to `CC#CCn1c(N2CCC[C@@H](N)C2)nc2c1c(=O)n(Cc1ccc(Cl)cc1Br)c(=O)n2C` [Compound 36], for which the IC50 was found to be 27 nM.

In the case of `CC#CCn1c(N2CCC[C@@H](N)C2)nc2c1c(=O)n(Cc1ccc(Cl)cc1C(=O)OC(C)C)c(=O)n2C` [Compound 37], the half-inhibitory concentration (IC50) worked out at 700 nM.

On to `CC#CCn1c(N2CCC[C@@H](N)C2)nc2c1c(=O)n(Cc1ccc(Cl)cc1C(=O)OCCCCCC)c(=O)n2C` [Compound 38, hexyl (R)-2-((8-(3-aminopiperidin-1-yl)-7-(but-2-yn-1-yl)-3-methyl-2,6-dioxo-2,3,6,7-tetrahydro-1H-purin-1-yl)methyl)-5-chlorobenzoate], for which the 50% inhibitory concentration (IC50) was > 10000 nM.

`CC#CCn1c(N2CCC[C@@H](N)C2)nc2c1c(=O)n(Cc1ccc(Cl)cc1C(=O)NCCCCC)c(=O)n2C` [Compound 40, (R)-2-((8-(3-aminopiperidin-1-yl)-7-(but-2-yn-1-yl)-3-methyl-2,6-dioxo-2,3,6,7-tetrahydro-1H-purin-1-yl)methyl)-5-chloro-N-pentylbenzamide]: the IC50 amounted to 700 nM.

Regarding `CC#CCn1c(N2CCC[C@@H](N)C2)nc2c1c(=O)n(Cc1ccc(Cl)cc1C(=O)OCCOCCn1cc(CN(CCCCCC)C[C@H](O)[C@@H](O)[C@H](O)[C@H](O)CO)nn1)c(=O)n2C` [Compound 41, 2-(2-(4-((hexyl(2,3,4,5,6-pentahydroxyhexyl)amino)methyl)-1H-1,2,3-triazol-1-yl)ethoxy)ethyl 2-((8-((R)-3-aminopiperidin-1-yl)-7-(but-2-yn-1-yl)-3-methyl-2,6-dioxo-2,3,6,7-tetrahydro-1H-purin-1-yl)methyl)-5-chlorobenzoate], the 50% inhibitory concentration (IC50) was > 10000 nM.

Regarding `[N-]=[N+]=NCCOCCOCCOC(=O)c1nc(C(F)(F)F)n2c1CN(C(=O)C[C@H](N)Cc1cc(F)c(F)cc1F)CC2` [Compound 42, 2-(2-(2-azidoethoxy)ethoxy)ethyl (R)-7-(3-amino-4-(2,4,5-trifluorophenyl)butanoyl)-3-(trifluoromethyl)-5,6,7,8-tetrahydroimidazo[1,5-a]pyrazine-1-carboxylate], the IC50 came out at 0.4 nM.

With `[N-]=[N+]=NCCOCCOCCNC(=O)c1nc(C(F)(F)F)n2c1CN(C(=O)C[C@H](N)Cc1cc(F)c(F)cc1F)CC2` [Compound 43], the IC50 was 1 nM.

For the compound `N[C@@H](CC(=O)N1CCn2c(C(F)(F)F)nc(C(=O)OCCOCCOCCn3cc(CNC[C@H](O)[C@@H](O)[C@H](O)[C@H](O)CO)nn3)c2C1)Cc1cc(F)c(F)cc1F` [Compound 44, 2-(2-(2-(4-((((2S,3R,4R,5R)-2,3,4,5,6-pentahydroxyhexyl)amino)methyl)-1H-1,2,3-triazol-1-yl)ethoxy)ethoxy)ethyl 7-((R)-3-amino-4-(2,4,5-trifluorophenyl)butanoyl)-3-(trifluoromethyl)-5,6,7,8-tetrahydroimidazo[1,5-a]pyrazine-1-carboxylate], the IC50 is 0.11 nM.

With `CCN(Cc1cn(CCOCCOCCOC(=O)c2nc(C(F)(F)F)n3c2CN(C(=O)C[C@H](N)Cc2cc(F)c(F)cc2F)CC3)nn1)C[C@H](O)[C@@H](O)[C@H](O)[C@H](O)CO` [Compound 45, 2-(2-(2-(4-((ethyl((2S,3R,4R,5R)-2,3,4,5,6-pentahydroxyhexyl)amino)methyl)-1H-1,2,3-triazol-1-yl)ethoxy)ethoxy)ethyl 7-((R)-3-amino-4-(2,4,5-trifluorophenyl)butanoyl)-3-(trifluoromethyl)-5,6,7,8-tetrahydroimidazo[1,5-a]pyrazine-1-carboxylate], the IC50 turned out to be 0.55 nM.

For the origin of these results see patent US20240174675A1, “SMALL MOLECULE REGULATORS OF ALVEOLAR TYPE 2 CELL PROLIFERATION FOR THE TREATMENT OF PULMONARY DISEASES” (THE SCRIPPS RESEARCH INSTITUTE, priority 2021, published 2024).
